Laboratory results: patent US11518764B2, “Substituted heteroaryls as inhibitors of the BCL6 BTB domain protein-protein interaction” (Ontario Institute for Cancer Research (OICR), priority 2018, dated 2022)
Where two headings read alike, the source gives them in different places.

Tests used:
BCL6 BTB domain = BCL6 BTB domain (Homo sapiens (Human), UniProt P41182); test: Surface plasmon resonance (SPR) assay; format: binding; settings: BCL6 BTB domain captured on SA chip, single cycle kinetics
Karpas422 cells = test: Tumor cell growth inhibition assay; format: cell-based
Outline: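 Growth inhibition was measured by ATPlite luminescence after six days of culture at 37° C. in 5% CO2. Karpas422 cells were seeded at 2,000 per well in Alpha-MEM plus 10% FBS. Compounds were given as a 10-point concentration series with a highest dose of 5 uM.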

[1] = system: BCL6 reporter construct (3xBCL6-TK-Luc) in SuDHL4 cells; test: Cell-based luciferase assay
Outline: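 SuDHL4 cells stably carrying a 3×BCL6-site TK-promoter firefly luciferase reporter, seeded at 15,000 cells/well, were dosed over a 10-point range (top 10 uM) and grown two days at 37 °C, 5% CO2. Luminescence then read after adding neolite reagent at room temperature.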

[2] = Homo sapiens, KARPAS-422, 144 h, read-out: Tumor Growth Inhibition in Karpas-422 (IC50, uM), Karpas422 cells, six days, ATPlite
[3] = Homo sapiens, SU-DHL-4, 48 h, read-out: Luciferase-Assay EC50, uM), SuDHL4-3xBCL6-TK-Luc cells, two days, high dose 10 uM

CN1CCN(c2cc(NC(=O)Cn3cc(-c4cc(Cl)c(O)c(C(N)=O)c4)c4c(=O)n(C)cnc43)c(Cl)cn2)C(C)(C)C1 [Compound I-352]
Kd (BCL6 BTB domain): 59.7 nM
IC50 (Karpas422 cells; [2]): 0.346 µM
EC50 [1, 3]: 0.79 µM

CO[C@@H]1CN(c2cc(NC(=O)Cn3cc(-c4cc(Cl)c(O)c(C(N)=O)c4)c4c(=O)n(C)cnc43)c(Cl)cn2)C[C@@H]1F [Compound I-365]
Kd (BCL6 BTB domain): 17.4 nM
IC50 (Karpas422 cells; [2]): 0.462 µM
EC50 [1, 3]: 0.281 µM

C[C@H](C1CC1)N1CCN(c2cc(NC(=O)Cn3cc(-c4cc(C(N)=O)c(O)c(F)c4F)c4c(=O)n(C)cnc43)c(Cl)cn2)[C@@H](C)C1 [Compound I-425]
Kd (BCL6 BTB domain): 44.7 nM
IC50 (Karpas422 cells; [2]): 0.624 µM
EC50 [1, 3]: 0.629 µM

Cc1nc2c(c(-c3cc(C(N)=O)c(O)c(F)c3F)cn2CC(=O)Nc2cc(N3CCN(C)C[C@@H]3C(C)C)ncc2Cl)c(=O)n1C [Compound I-378]
Kd (BCL6 BTB domain): 118 nM
IC50 (Karpas422 cells; [2]): 1.22 µM
EC50 [1, 3]: 0.944 µM

CN1C2CCC1CN(c1cc(NC(=O)Cn3cc(-c4cc(F)c(O)c(C(N)=O)c4)c4c(=O)n(C)cnc43)c(Cl)cn1)C2 [Compound I-283]
Kd (BCL6 BTB domain): 16.7 nM
IC50 (Karpas422 cells; [2]): 0.282 µM
EC50 [1, 3]: 0.222 µM

C[C@H]1CN(CC(CO)CO)CCN1c1cc(NC(=O)Cn2cc(-c3cc(C(N)=O)c(O)c(F)c3F)c3c(=O)n(C)cnc32)c(Cl)c(F)n1 [Compound I-463, (S)-5-(7-(2-((3-chloro-2-fluoro-6-(4-(3-hydroxy-2-(hydroxymethyl)propyl)-2-methylpiperazin-1-yl)pyridin-4-yl)amino)-2-oxoethyl)-3-methyl-4-oxo-4,7-dihydro-3H-pyrrolo[2,3-d]pyrimidin-5-yl)-3,4-difluoro-2-hydroxybenzamide]
Kd (BCL6 BTB domain): 8.56 nM
IC50 (Karpas422 cells; [2]): 1.28 µM
EC50 [1, 3]: 3.53 µM

Cc1c(O)c(C(N)=O)cc(-c2cn(CC(=O)Nc3cc(N4CCOCC4)ncc3Cl)c3ncn(C)c(=O)c23)c1F [Compound I-118]
Kd (BCL6 BTB domain): 2000 nM
IC50 (Karpas422 cells; [2]): 2.45 µM
EC50 [1, 3]: > 10 µM

CO[C@H]1CC(c2cc(NC(=O)Cn3cc(-c4cc(Cl)c(O)c(C(N)=O)c4)c4c(=O)n(C)cnc43)c(Cl)c(F)n2)C[C@H]1F (stereo partly drawn) [Compound I-439]
Kd (BCL6 BTB domain): 32.9 nM
IC50 (Karpas422 cells; [2]): 0.28 µM
EC50 [1, 3]: 0.267 µM

Cn1cnc2c(c(-c3cc(Cl)c(O)c(C(N)=O)c3)cn2CC(=O)Nc2cc(N3CCOC4CC43)ncc2Cl)c1=O (stereo not drawn) [Compound I-244]
Kd (BCL6 BTB domain): 8.46 nM
IC50 (Karpas422 cells; [2]): 0.169 µM
EC50 [1, 3]: 0.279 µM

Cn1cnc2c(c(-c3cc(F)c(O)c(C(N)=O)c3)cn2CC(=O)Nc2cc(N3CCCC3)nc(F)c2Cl)c1=O [Compound I-419]
Kd (BCL6 BTB domain): 5.85 nM
IC50 (Karpas422 cells; [2]): 0.22 µM
EC50 [1, 3]: 0.348 µM

Cc1cc(-c2cn(CC(=O)Nc3cc(N4CCOC[C@@H]4C)ncc3Cl)c3ccn(C)c(=O)c23)cc(C(N)=O)c1O [Compound I-139]
Kd (BCL6 BTB domain): 3270 nM
IC50 (Karpas422 cells; [2]): > 10 µM
EC50 [1, 3]: 8.35 µM

COc1c(O)c(C(N)=O)cc(-c2cn(CC(=O)Nc3cc(N4CCN(C)CC4)ncc3Cl)c3ncn(C)c(=O)c23)c1F [Compound I-189]
Kd (BCL6 BTB domain): 143 nM
IC50 (Karpas422 cells; [2]): 2.19 µM
EC50 [1, 3]: 1.69 µM

COC[C@@H]1COCCN1c1cc(NC(=O)Cn2cc(-c3cc(Cl)c(O)c(C(N)=O)c3)c3c(=O)n(C)cnc32)c(Cl)cn1 [Compound I-150]
Kd (BCL6 BTB domain): 12.8 nM
IC50 (Karpas422 cells; [2]): 0.124 µM
EC50 [1, 3]: 0.184 µM

Cn1cnc2c(c(-c3cc(Cl)c(O)c(C(N)=O)c3)cn2CC(=O)Nc2cc(N3CCC4(CCOCC4)CC3)ncc2Cl)c1=O [Compound I-77]
Kd (BCL6 BTB domain): 27 nM
IC50 (Karpas422 cells; [2]): 0.115 µM
EC50 [1, 3]: 0.279 µM

CN1CCN(c2cc(NC(=O)Cn3cc(-c4cc(C(N)=O)c(O)c(F)c4F)c4c(=O)n(C)cnc43)c(Cl)cn2)C(C)(C)C1 [Compound I-327]
Kd (BCL6 BTB domain): 271 nM
IC50 (Karpas422 cells; [2]): 2.07 µM
EC50 [1, 3]: 3 µM

C[C@H]1CN(C)CCN1c1cc(NC(=O)Cn2cc(-c3cc(Cl)c(O)c(C(N)=O)c3)c3c(=O)[nH]c(-c4ccccc4)nc32)c(Cl)cn1 [Compound I-261, (S)-3-chloro-5-(7-(2-((5-chloro-2-(2,4-dimethylpiperazin-1-yl)pyridin-4-yl)amino)-2-oxoethyl)-4-oxo-2-phenyl-4,7-dihydro-3H-pyrrolo[2,3-d]pyrimidin-5-yl)-2-hydroxybenzamide]
Kd (BCL6 BTB domain): 39.8 nM
IC50 (Karpas422 cells; [2]): 0.225 µM
EC50 [1, 3]: 0.65 µM

Cc1nc2c(c(-c3cc(C(N)=O)c(O)c4c3OCCO4)cn2CC(=O)Nc2cc(N3CCOC[C@@H]3C)ncc2Cl)c(=O)n1C [Compound I-309]
Kd (BCL6 BTB domain): 146 nM
IC50 (Karpas422 cells; [2]): 2.55 µM
EC50 [1, 3]: 1.02 µM

C[C@@H](C1CC1)N1CCN(c2cc(NC(=O)Cn3cc(-c4cc(C(N)=O)c(O)c(F)c4F)c4c(=O)n(C)cnc43)c(Cl)cn2)[C@@H](C)C1 [Compound I-424]
Kd (BCL6 BTB domain): 26.1 nM
IC50 (Karpas422 cells; [2]): 0.157 µM
EC50 [1, 3]: 0.309 µM

Cn1c(NCC2CC2)nc2c(c(-c3cc(Cl)c(O)c(C(N)=O)c3)cn2CC(=O)Nc2cc(N3CCOCC3)ncc2Cl)c1=O [Compound I-124]
Kd (BCL6 BTB domain): 86 nM
IC50 (Karpas422 cells; [2]): 0.434 µM
EC50 [1, 3]: 0.371 µM

CO[C@H]1CN(c2cc(NC(=O)Cn3cc(-c4cc(Cl)c(O)c(C(N)=O)c4)c4c(=O)n(C)c(C)nc43)c(Cl)c(F)n2)C[C@H]1F [Compound I-400]
Kd (BCL6 BTB domain): 27.8 nM
IC50 (Karpas422 cells; [2]): 0.408 µM
EC50 [1, 3]: 0.204 µM

Cn1cnc2c(c(-c3cc(Cl)c(O)c(C(N)=O)c3)cn2CC(=O)Nc2cc(N3Cc4ccncc4C3)ncc2Cl)c1=O [Compound I-152]
Kd (BCL6 BTB domain): 20.7 nM
IC50 (Karpas422 cells; [2]): 0.134 µM
EC50 [1, 3]: 0.168 µM

Cc1nc2c(c(-c3cc(C(N)=O)c(O)c4c3OCO4)cn2CC(=O)Nc2cc(N3CCOC[C@@H]3C)ncc2Cl)c(=O)n1C [Compound I-308]
Kd (BCL6 BTB domain): 2.05 nM
IC50 (Karpas422 cells; [2]): 0.0161 µM
EC50 [1, 3]: 0.0368 µM

Cn1cnc2c(c(-c3cc(Cl)c(O)c(C(N)=O)c3)cn2CC(=O)Nc2cc(N3CCOCC34CCC4)ncc2Cl)c1=O [Compound I-245]
Kd (BCL6 BTB domain): 20.4 nM
IC50 (Karpas422 cells; [2]): 0.182 µM
EC50 [1, 3]: 0.245 µM

Cn1cnc2c(c(-c3cc(C(N)=O)c(O)c(F)c3F)cn2CC(=O)Nc2cc(NCCCO)nc(F)c2Cl)c1=O [Compound I-481, 5-(7-(2-((3-chloro-2-fluoro-6-((3-hydroxypropyl)amino)pyridin-4-yl)amino)-2-oxoethyl)-3-methyl-4-oxo-4,7-dihydro-3H-pyrrolo[2,3-d]pyrimidin-5-yl)-3,4-difluoro-2-hydroxybenzamide]
Kd (BCL6 BTB domain): 19.2 nM
IC50 (Karpas422 cells; [2]): 10 µM
EC50 [1, 3]: 19.4 µM

Cn1cnc2c(c(-c3cc(Cl)c(O)c(C(N)=O)c3)cn2CC(=O)Nc2cc(N3C[C@H]4CCO[C@H]4C3)ncc2Cl)c1=O [Compound I-74]
Kd (BCL6 BTB domain): 2 nM
IC50 (Karpas422 cells; [2]): 0.123 µM
EC50 [1, 3]: 2.3 µM

Cn1cnc2c(c(-c3cc(Cl)c(O)c(C(N)=O)c3)cn2CC(=O)Nc2cc(N3CCOC(C(F)(F)F)C3)ncc2Cl)c1=O (stereo not drawn) [Compound I-69]
Kd (BCL6 BTB domain): 72 nM
IC50 (Karpas422 cells; read-out: Tumor Growth Inhibition in Karpas-422 (IC50), Karpas422 cells, six days, ATPlite): 0.22 µM
EC50 ([1]; read-out: Luciferase-Assay EC50, SuDHL4-3xBCL6-TK-Luc cells, two days, high dose 10 uM): 0.269 µM

Cn1cnc2c(c(-c3cc(Cl)c(O)c(C(N)=O)c3)cn2CC(=O)Nc2cn3ccnc3cc2Cl)c1=O [Compound I-173]
Kd (BCL6 BTB domain): 200 nM
IC50 (Karpas422 cells; [2]): 5.72 µM
EC50 [1, 3]: 44.6 µM

CO[C@H]1CN(c2cc(NC(=O)Cn3cc(-c4cc(C(N)=O)c(O)c(F)c4F)c4c(=O)n(C)cnc43)c(Cl)c(F)n2)C[C@H]1F [Compound I-441]
Kd (BCL6 BTB domain): 22.3 nM
IC50 (Karpas422 cells; [2]): 0.338 µM
EC50 [1, 3]: 0.324 µM

CO[C@@H]1CN(c2cc(NC(=O)Cn3cc(-c4cc(C(N)=O)c(O)c(F)c4F)c4c(=O)n(C)cnc43)c(Cl)cn2)C[C@@H]1F [Compound I-366]
Kd (BCL6 BTB domain): 35.2 nM
IC50 (Karpas422 cells; [2]): 0.978 µM
EC50 [1, 3]: 0.899 µM

C[C@H]1CN(CC2CCO2)CCN1c1cc(NC(=O)Cn2cc(-c3cc(C(N)=O)c(O)c(F)c3F)c3c(=O)n(C)cnc32)c(Cl)c(F)n1 (stereo partly drawn) [Compound I-460, 5-(7-(2-((3-chloro-2-fluoro-6-((2S)-2-methyl-4-(oxetan-2-ylmethyl)piperazin-1-yl)pyridin-4-yl)amino)-2-oxoethyl)-3-methyl-4-oxo-4,7-dihydro-3H-pyrrolo[2,3-d]pyrimidin-5-yl)-3,4-difluoro-2-hydroxybenzamide]
Kd (BCL6 BTB domain): 9.87 nM
IC50 (Karpas422 cells; [2]): 0.223 µM
EC50 [1, 3]: 0.102 µM

C[C@H]1CN(C)CCN1c1cc(NC(=O)Cn2cc(-c3cc(C(N)=O)c(O)c(Cl)c3F)c3c(=O)n(C)c(C(F)(F)F)nc32)c(Cl)cn1 [Compound I-267]
Kd (BCL6 BTB domain): 582 nM
IC50 (Karpas422 cells; [2]): 3.79 µM
EC50 [1, 3]: 2.27 µM
